According to ChEMBL document CHEMBL1681651, “A broad spectrum anticancer nucleoside with selective toxicity against human colon cells in vitro” (2011):

Key:
Format in all cases: functional
EKVX = test: Growth inhibition of human EKVX cells assessed as cell growth at 1 mM after 48 hrs by SRB assay; settings: read-out: Activity
NCI-H460 [1] = test: Growth inhibition of human NCI-H460 cells assessed as cell growth at 100 uM after 48 hrs by SRB assay; settings: NCI-H460, 48 h, read-out: Activity
BT-549 = test: Growth inhibition of human BT549 cells assessed as cell growth at 1 mM after 48 hrs by SRB assay; settings: BT-549, 48 h, read-out: Activity
SK-MEL-2 = test: Growth inhibition of human SK-MEL-2 cells assessed as cell growth at 1 uM after 48 hrs by SRB assay; settings: SK-MEL-2, 48 h, read-out: Activity
SN12C = test: Growth inhibition of human SN12C cells assessed as cell growth at 100 uM after 48 hrs by SRB assay; settings: read-out: Activity
OVCAR-4 = test: Growth inhibition of human OVCAR4 cells assessed as cell growth at 1 uM after 48 hrs by SRB assay; settings: OVCAR-4, 48 h, read-out: Activity
HCT-116 = test: Growth inhibition of human HCT116 cells assessed as cell growth at 1 mM after 48 hrs by SRB assay; settings: HCT-116, 48 h, read-out: Activity
NCI-H226 = test: Growth inhibition of human NCI-H226 cells assessed as cell growth at 1 mM after 48 hrs by SRB assay; settings: NCI-H226, 48 h, read-out: Activity
SNB-19 = test: Growth inhibition of human SNB19 cells assessed as cell growth at 1 uM after 48 hrs by SRB assay; settings: SNB-19, 48 h, read-out: Activity
RXF 393 [2] = test: Growth inhibition of human RXF393 cells assessed as cell growth at 1 uM after 48 hrs by SRB assay; settings: RXF 393, 48 h, read-out: Activity
DU-145 = test: Growth inhibition of human DU145 cells assessed as cell growth at 10 uM after 48 hrs by SRB assay; settings: DU-145, 48 h, read-out: Activity
HOP-92 [3] = test: Growth inhibition of human HOP92 cells assessed as cell growth at 0.1 uM after 48 hrs by SRB assay; settings: HOP-92, 48 h, read-out: Activity
HL-60(TB) = test: Growth inhibition of human HL-60(TB) cells assessed as cell growth at 10 uM after 48 hrs by SRB assay; settings: HL-60, 48 h, read-out: Activity
Malme-3M = test: Growth inhibition of human MALME-3M cells assessed as cell growth at 100 uM after 48 hrs by SRB assay; settings: read-out: Activity
SNB-75 = test: Growth inhibition of human SNB75 cells assessed as cell growth at 0.1 uM after 48 hrs by SRB assay; settings: SNB-75, 48 h, read-out: Activity
K562 = test: Growth inhibition of human K562 cells assessed as cell growth at 10 uM after 48 hrs by SRB assay; settings: K562, 48 h, read-out: Activity
SF-268 = test: Growth inhibition of human SF268 cells assessed as cell growth at 100 uM after 48 hrs by SRB assay; settings: SF-268, 48 h, read-out: Activity
SK-MEL-5 = test: Growth inhibition of human SK-MEL-5 cells assessed as cell growth at 1 uM after 48 hrs by SRB assay; settings: SK-MEL-5, 48 h, read-out: Activity
MDA-MB-435 = test: Growth inhibition of human MDA-MB-435 cells assessed as cell growth at 1 uM after 48 hrs by SRB assay; settings: MDA-MB-435, 48 h, read-out: Activity
NCI-H460 [4] = test: Growth inhibition of human NCI-H460 cells assessed as cell growth at 1 mM after 48 hrs by SRB assay; settings: NCI-H460, 48 h, read-out: Activity
T47D = test: Growth inhibition of human T47D cells assessed as cell growth at 0.1 uM after 48 hrs by SRB assay; settings: read-out: Activity
NCI-H522 = test: Growth inhibition of human NCI-H522 cells after 48 hrs by […] growth inhibition assay; settings: NCI-H522, 48 h
NCI-H460 [5] = test: Growth inhibition of human NCI-H460 cells assessed as cell growth at 10 uM after 48 hrs by SRB assay; settings: NCI-H460, 48 h, read-out: Activity
SF-539 = test: Growth inhibition of human SF539 cells assessed as cell growth at 100 uM after 48 hrs by SRB assay; settings: SF-539, 48 h, read-out: Activity
MDA-MB-231 = test: Growth inhibition of human MDA-MB-231 cells assessed as cell growth at 100 uM after 48 hrs by SRB assay; settings: MDA-MB-231, 48 h, read-out: Activity
COLO 205 = test: Growth inhibition of human COLO205 cells assessed as cell growth at 100 uM after 48 hrs by SRB assay; settings: COLO 205, 48 h, read-out: Activity
RXF 393 [6] = test: Growth inhibition of human RXF393 cells assessed as cell growth at 100 uM after 48 hrs by SRB assay; settings: RXF 393, 48 h, read-out: Activity
UACC-62 = test: Growth inhibition of human UACC62 cells assessed as cell growth at 100 uM after 48 hrs by SRB assay; settings: UACC-62, 48 h, read-out: Activity
HOP-92 [7] = test: Growth inhibition of human HOP92 cells assessed as cell growth at 100 uM after 48 hrs by SRB assay; settings: HOP-92, 48 h, read-out: Activity
LOX IMVI = test: Growth inhibition of human LOXIMVI cells assessed as cell growth at 1 mM after 48 hrs by SRB assay; settings: read-out: Activity
IGROV-1 = test: Growth inhibition of human IGROV1 cells assessed as cell growth at 1 uM after 48 hrs by SRB assay; settings: IGROV-1, 48 h, read-out: Activity
KM12 = test: Growth inhibition of human KM12 cells assessed as cell growth at 1 uM after 48 hrs by SRB assay; settings: KM12, 48 h, read-out: Activity
SK-OV-3 = test: Growth inhibition of human SKOV3 cells assessed as cell growth at 100 uM after 48 hrs by SRB assay; settings: SK-OV-3, 48 h, read-out: Activity
CCRF-CEM = test: Growth inhibition of human CCRF-CEM cells assessed as cell growth at 100 uM after 48 hrs by SRB assay; settings: read-out: Activity
UO-31 = test: Growth inhibition of human UO31 cells assessed as cell growth at 0.1 uM after 48 hrs by SRB assay; settings: UO-31, 48 h, read-out: Activity
HT-29 = test: Growth inhibition of human HT-29 cells assessed as cell growth at 10 uM after 48 hrs by SRB assay; settings: HT-29, 48 h, read-out: Activity

With `CNC(=O)NC[C@H]1O[C@@H](n2cnc3c(NC(=O)Nc4ccccc4)ncnc32)[C@H](O[Si](C)(C)C(C)(C)C)[C@@H]1CC(=O)N(C)OC` the growth at 1000 µM (EKVX) was 36%, the growth at 100 µM (NCI-H460 [1]) was 44% and the growth at 1000 µM (BT-549) was 26%. The growth at 1 µM (SK-MEL-2) was 83%, the growth at 100 µM (SN12C) was 66% and the growth at 1 µM (OVCAR-4) was 100%. It also gave a growth at 1000 µM (HCT-116) of 6%, a growth at 1000 µM (NCI-H226) of 40% and a growth at 1 µM (SNB-19) of 93%. It also gave a growth at 1 µM (RXF 393 [2]) of 100%, a growth at 10 µM (DU-145) of 104% and a growth at 0.1 µM (HOP-92 [3]) of 80%. For the same molecule, the growth at 10 µM (HL-60(TB)) was 84%, the growth at 100 µM (Malme-3M) was 52% and the growth at 0.1 µM (SNB-75) was 94%. It also gave a growth at 10 µM (K562) of 82%, a growth at 100 µM (SF-268) of 46% and a growth at 1 µM (SK-MEL-5) of 98%. The growth at 1 µM (MDA-MB-435) was 97%, the growth at 1000 µM (NCI-H460 [4]) was 25% and the growth at 0.1 µM (T47D) was 90%. For the same molecule, the GI50 (NCI-H522; read-out: GI50) was 11.1 µM, the CC50 (NCI-H522; read-out: LC50 (the source's name)) was greater than 100 µM and the TGI (NCI-H522; read-out: TGI) was greater than 100 µM. It also gave a GI50 (NCI-H522; read-out: pGI50 (converted)) of 11 µM, a CC50 (NCI-H522; read-out: pLC50 (the source's name) (converted)) greater than 100 µM and a TGI (NCI-H522; read-out: pTGI (converted)) greater than 100 µM. For the same molecule, the growth at 10 µM (NCI-H460 [5]) was 90%, the growth at 100 µM (SF-539) was 65% and the growth at 100 µM (MDA-MB-231) was 55%. For the same molecule, the growth at 100 µM (COLO 205) was 55%, the growth at 100 µM (RXF 393 [6]) was 49% and the growth at 100 µM (UACC-62) was 69%. It also gave a growth at 100 µM (HOP-92 [7]) of 27%, a growth at 1000 µM (LOX IMVI) of 35% and a growth at 1 µM (IGROV-1) of 89%. For the same molecule, the growth at 1 µM (KM12) was 108%, the growth at 100 µM (SK-OV-3) was 82% and the growth at 100 µM (CCRF-CEM) was 39%. It also gave a growth at 0.1 µM (UO-31) of 89% and a growth at 10 µM (HT-29) of 100%.
